According to ChEMBL document CHEMBL1149474, “Synthesis and receptor binding properties of chimeric peptides containing a mu-opioid receptor ligand and nociceptin/orphanin FQ receptor ligand Ac-RYYRIK-amide” (Bioorg Med Chem Lett, 2006):
Non-standard residues stand in square brackets, D forms with d. Residues, ends and D or L forms follow the SMILES beside them. βAla = NCCC(=O)O

Assays:
Mu-type opioid receptor = Mu-type opioid receptor (Rattus norvegicus, UniProt P33535); assay: Displacement of [3H]DAMGO from mu opioid receptor in rat brain homogenate; type: tissue-based
Chain of Mu-type opioid receptor (P33535 whole entry): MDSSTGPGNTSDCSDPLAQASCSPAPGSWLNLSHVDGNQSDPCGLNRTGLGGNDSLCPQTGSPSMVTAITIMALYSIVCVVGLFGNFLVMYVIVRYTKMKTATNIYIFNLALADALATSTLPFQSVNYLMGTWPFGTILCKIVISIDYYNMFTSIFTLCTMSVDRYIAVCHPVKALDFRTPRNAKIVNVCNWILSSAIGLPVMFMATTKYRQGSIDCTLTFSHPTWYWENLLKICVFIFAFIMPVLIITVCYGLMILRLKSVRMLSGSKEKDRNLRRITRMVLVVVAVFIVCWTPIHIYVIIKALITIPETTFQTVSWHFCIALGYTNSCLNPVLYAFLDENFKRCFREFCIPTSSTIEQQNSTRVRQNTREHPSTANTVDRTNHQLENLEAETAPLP

Nociceptin receptor = Nociceptin receptor (Homo sapiens, UniProt P41146); assay: Displacement of [3H]NOC from human ORL1 receptor expressed in HEK293 cells; type: cell-based
Chain of Nociceptin receptor (P41146 whole entry): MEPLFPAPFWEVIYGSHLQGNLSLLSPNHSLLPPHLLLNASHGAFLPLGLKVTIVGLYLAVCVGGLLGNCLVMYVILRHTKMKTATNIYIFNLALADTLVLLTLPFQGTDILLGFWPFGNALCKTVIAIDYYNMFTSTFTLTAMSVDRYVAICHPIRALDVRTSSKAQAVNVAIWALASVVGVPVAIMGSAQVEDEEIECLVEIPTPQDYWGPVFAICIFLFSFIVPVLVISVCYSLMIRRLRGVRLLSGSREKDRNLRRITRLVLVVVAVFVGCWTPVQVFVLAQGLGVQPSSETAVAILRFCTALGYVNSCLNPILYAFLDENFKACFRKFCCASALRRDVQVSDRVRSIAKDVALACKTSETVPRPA

SMILES	IC50 (Mu-type opioid receptor)	IC50 (Nociceptin receptor)
CC[C@H](C)[C@H](NC(=O)[C@H](CCCN=C(N)N)NC(=O)[C@H](Cc1ccc(O)cc1)NC(=O)[C@H](Cc1ccc(O)cc1)NC(=O)[C@H](CCCN=C(N)N)NC(C)=O)C(=O)N[C@@H](CCCCN)C(=O)NCC(=O)NCC(=O)NCC(=O)N[C@@H](CCCCNC(=O)CNC(=O)CNC(=O)CNC(=O)CNC(=O)CNC(=O)CCNC(=O)[C@H](Cc1ccccc1)NC(=O)[C@@H](CCCN=C(N)N)NC(=O)[C@@H](N)Cc1ccc(O)cc1)C(N)=O	0.0477 nM	0.0803 nM
C[C@@H](NC(=O)[C@@H](N)Cc1ccc(O)cc1)C(=O)N[C@@H](Cc1ccccc1)C(=O)NCC(=O)N[C@@H](Cc1ccc(O)cc1)C(=O)N1CCC[C@H]1C(=O)N[C@@H](CO)C(N)=O [DERMORPHIN]	0.538 nM	> 10000 nM
N=C(N)NCCC[C@@H](NC(=O)[C@@H](N)Cc1ccc(O)cc1)C(=O)N[C@@H](Cc1ccccc1)C(=O)NCCC(N)=O (H-Y[dR]F[βAla]-NH2)	1.18 nM	> 10000 nM
CC[C@H](C)[C@H](NC(=O)[C@H](CCCN=C(N)N)NC(=O)[C@H](Cc1ccc(O)cc1)NC(=O)[C@H](Cc1ccc(O)cc1)NC(=O)[C@H](CCCN=C(N)N)NC(C)=O)C(=O)N[C@@H](CCCCN)C(=O)N[C@@H](CCCCNC(=O)[C@H](CO)NC(=O)[C@@H]1CCCN1C(=O)[C@H](Cc1ccc(O)cc1)NC(=O)CNC(=O)[C@H](Cc1ccccc1)NC(=O)[C@@H](C)NC(=O)[C@@H](N)Cc1ccc(O)cc1)C(N)=O	–	11.6 nM
CC[C@H](C)[C@H](NC(=O)[C@H](CCCN=C(N)N)NC(=O)[C@H](Cc1ccc(O)cc1)NC(=O)[C@H](Cc1ccc(O)cc1)NC(=O)[C@H](CCCN=C(N)N)NC(C)=O)C(=O)N[C@@H](CCCCN)C(N)=O	> 10000 nM	–
CC[C@H](C)[C@H](NC(=O)[C@H](CCCN=C(N)N)NC(=O)[C@H](Cc1ccc(O)cc1)NC(=O)[C@H](Cc1ccc(O)cc1)NC(=O)[C@H](CCCN=C(N)N)NC(C)=O)C(=O)N[C@@H](CCCCN)C(=O)NCC(=O)NCC(=O)NCC(=O)N[C@@H](CCCCNC(=O)CNC(=O)CNC(=O)[C@H](CO)NC(=O)[C@@H]1CCCN1C(=O)[C@H](Cc1ccc(O)cc1)NC(=O)CNC(=O)[C@H](Cc1ccccc1)NC(=O)[C@@H](C)NC(=O)[C@@H](N)Cc1ccc(O)cc1)C(N)=O	0.00236 nM	0.0464 nM
CC[C@H](C)[C@H](NC(=O)[C@H](CCCN=C(N)N)NC(=O)[C@H](Cc1ccc(O)cc1)NC(=O)[C@H](Cc1ccc(O)cc1)NC(=O)[C@H](CCCN=C(N)N)NC(C)=O)C(=O)N[C@@H](CCCCN)C(=O)N[C@@H](CCCCNC(=O)CCNC(=O)[C@H](Cc1ccccc1)NC(=O)[C@@H](CCCN=C(N)N)NC(=O)[C@@H](N)Cc1ccc(O)cc1)C(N)=O	2.76 nM	0.789 nM
